Data from patent publication US4177269A, “Novel 17-esters of 17α-hydroxy gestogens, compositions containing such compounds, processes for their preparation and methods of treatment therewith” (Aktiebolaget Leo, priority 1976, dated 1979).

Experiments:
[1] = Hepatome AH 130 tumour growth inhibition in rats; format: in vivo, Sprague-Dawley rats; design: ED50: unit not given here; details: rat, in vivo, ip, one i.p. injection
Procedure, shortened: (§1)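 Sprague-Dawley rats implanted i.p. with 5 × 10^6 tumour cells, given a single i.p. injection the day after implantation, and killed on day 8. Tumour weights compared with controls; ED50 is the dose halving tumour size, LD50 the dose lethal to 50% of animals.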

[2] = system: Hepatome AH 130; experiment: Hepatome AH 130 tumour growth inhibition in rats; format: in vivo, Sprague-Dawley rats; design: ED50: unit not given here; details: one i.p. injection, dose causing 50 percent reduction of tumour size, killed 8th day
Procedure, shortened: as §1

[3] = system: Lymphatic leukemia L 1210; experiment: Lymphatic leukemia L 1210 survival in mice; format: in vivo, CDF1 (C3H×DBA/2)F1 mice; details: one i.p. injection; for Weight change Δv: T - C up to the 5th day
Source text: The experimental design and the interpretation of the results are in accordance with the standards set by the CCNSC (Cancer Chemotherpy Reports, January 1959 and December 1962).
Lymphatic leukemia L 1210.
Experimental animals: CDF1 (C3H×DBA/2)F1 mice
Tumour implant: 10^5 tumour cells i.p.
Therapy: One injection i.p. on the day following implanta-
Evaluation: (a) The survival time of the test animals (t)
expressed as the percentage of that of control animals (c).
(b) Weight change in the test animals (T) compared with that
of the control animals (C) up to the 5th day.
(c) The mortality rate must not exceed 35% in the test
animals on the 5th day of therapy.

CC(=O)[C@@]1(OC(=O)COC(=O)c2ccc(C)c(N(CCCl)CCCl)c2)CC[C@H]2[C@@H]3CCC4=CC(=O)CC[C@]4(C)[C@H]3CC[C@@]21C [Compound 3:7, 17α-/3-(N,N-bis(2-chloroethyl)amino)-4-methylbenzoyloxyacetoxy/pregn-4-ene-3,20-dione]
LD50 ([1]; dose causing 50 percent lethality, column head not given): > 250 mg/kg | selectivity ratio ([1]; read-out: T.I. (LD50/ED50)): > 125 | ED50 [2]: 2 | Effect (survival time of test animals as percentage of that of control animals) ([3]; 250 mg/kg): 130% | Mortality ([3]; 250 mg/kg): 0/20 | Weight change Δv ([3]; 250 mg/kg): -4.0 g | Effect (survival time of test animals as percentage of that of control animals) ([3]; 500 mg/kg): 172% | Mortality ([3]; 500 mg/kg): 0/19 | Weight change Δv ([3]; 500 mg/kg): -5.2 g
